According to publication PMC9016878 (ACS Omega, 2022):

What was measured:
[1] = target: α-glucosidase from Saccharomyces cerevisiae; experiment: α-glucosidase inhibition; type: biochemical; conditions: read-out: Inhibitory activity (IC50) on α-glucosidase; mean ± SD; pNPG substrate, pH 6.8, 37 °C
[2] = target: T1, porcine pancreatic amylase (Sus scrofa, UniProt P00690); experiment: biochemical
T1 sequence (P00690 16-511): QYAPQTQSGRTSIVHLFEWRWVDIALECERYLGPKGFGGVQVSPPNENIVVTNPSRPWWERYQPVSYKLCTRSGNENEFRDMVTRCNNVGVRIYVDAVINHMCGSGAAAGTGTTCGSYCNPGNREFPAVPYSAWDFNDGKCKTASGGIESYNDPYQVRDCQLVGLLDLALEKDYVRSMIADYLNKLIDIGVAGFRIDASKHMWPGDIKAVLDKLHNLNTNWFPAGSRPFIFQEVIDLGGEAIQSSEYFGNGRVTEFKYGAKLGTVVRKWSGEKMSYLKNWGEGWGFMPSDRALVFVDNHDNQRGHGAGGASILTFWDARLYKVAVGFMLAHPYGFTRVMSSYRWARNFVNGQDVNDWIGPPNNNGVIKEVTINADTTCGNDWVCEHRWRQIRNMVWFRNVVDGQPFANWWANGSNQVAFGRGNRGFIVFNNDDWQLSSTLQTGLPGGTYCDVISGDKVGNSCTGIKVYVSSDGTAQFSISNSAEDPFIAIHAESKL

[3] = target: T2, lipase from porcine pancreas (Sus scrofa, UniProt P00591); experiment: pancreatic lipase inhibition; type: biochemical
T2 sequence (P00591 1-450): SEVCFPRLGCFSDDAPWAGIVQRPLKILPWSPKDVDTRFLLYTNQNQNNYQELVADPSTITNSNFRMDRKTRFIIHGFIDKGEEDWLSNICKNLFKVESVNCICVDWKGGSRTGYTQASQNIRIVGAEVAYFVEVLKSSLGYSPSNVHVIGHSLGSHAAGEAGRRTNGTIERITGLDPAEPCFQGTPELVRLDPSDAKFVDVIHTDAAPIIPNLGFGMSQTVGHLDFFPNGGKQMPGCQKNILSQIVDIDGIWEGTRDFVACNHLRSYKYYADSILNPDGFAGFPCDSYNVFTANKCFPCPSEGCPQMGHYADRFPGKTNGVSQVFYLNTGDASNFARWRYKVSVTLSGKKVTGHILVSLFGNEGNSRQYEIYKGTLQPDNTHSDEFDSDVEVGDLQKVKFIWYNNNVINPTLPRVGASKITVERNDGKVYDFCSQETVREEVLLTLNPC

IC50 [1]	IC50 [2]	IC50 [3]	SMILES
192 ± 13.8 µM			C[C@@H]1CC[C@]2(C(=O)O)CC[C@]3(C)C(=CC[C@@H]4[C@@]5(C)[C@H](O)C(=O)[C@H](O)C(C)(C)[C@@H]5CC[C@]43C)[C@@H]2[C@]1(C)O [compound 7, 1-hydroxy-2-oxopomolic acid]
85.5 ± 6.87 µM	142 ± 6.15 µM	458 ± 72.8 µM	C[C@@H]1CC[C@]2(C(=O)O)CC[C@]3(C)C(=CC[C@@H]4[C@@]5(C)CC[C@H](O)C(C)(C)[C@@H]5CC[C@]43C)[C@@H]2[C@]1(C)O [compound 13, pomolic acid]
	113 ± 3.51 µM		CC[C@H](CC[C@@H](C)[C@H]1CC[C@H]2[C@@H]3CC=C4C[C@@H](O[C@@H]5O[C@H](CO)[C@@H](O)[C@H](O)[C@H]5O)CC[C@]4(C)[C@H]3CC[C@]12C)C(C)C [compound 14, β-sitosterol glucoside]
